# Source: US8198333B2, “Cytostatic drug composition” (Geopharma Produktions GmbH, priority 2004, dated 2012)
# Columns and labels:
# AsPc-1 = assay: Cytostatic activity, EZ4U test, pancreas carcinoma cell line AsPc-1; format: cell-based; settings: three days
# Procedure: (§1) Cell lines of a colon carcinoma and a pancreas carcinoma, such as Capan-1, DLD-1, HT 29, HCT-8, MLA-PA-CA2, PANCI, BXPC-3, ASPC-1, and HT-29, were examined. The tested cancer cell lines were stored in liquid nitrogen. After defrosting, the cancer cells were cultivated in culture flasks with RPMI-1640+glutamine medium (Gibco® No. 5240025) at 37° C./5% CO2 atmosphere for up to 14 days so that a monolayer of cells was able to form. Thereupon, the cells were harvested with trypsin+EDTA (Gibco® No. 15400-054) and washed twice with an RPMI-medium.
# (§2) Apart from poly-[2-(2-ethoxyethoxyethyl)guanidinium hydrochloride], the chemotherapeutic agents cisplatin, epirubicin, mitomycin C and 5-fluorouracil were tested by way of comparison. Therefor, the compounds were at first dissolved according to the respective instructions of the manufacturer and were then stored as a stock solution in aliquots of 1 ml each (concentration of drug substance: 1000 μg/ml) in liquid nitrogen at −180° C. The dissolved substances were used on the very same day.
# (§3) In order to determine the cytotoxic activity of the substances, the cancer cells were transferred from the culture flasks with an RPMI-washed suspension at a concentration of 20,000 cells in 200 μl onto microtiter plates. In the presence of varying concentrations of the test substances, the cancer cells were subsequently incubated for three days at a temperature of 37° C. and in an atmosphere of 5% CO2. For the poly-[2-(2-ethoxyethoxyethyl)guanidinium hydrochloride], concentrations of 0.12 to 500 μg/ml (factor 2 dilutions) were used in all test arrangements. After three days of incubation, the evaluation was carried out by means of the nonradioactive cell proliferation and cytotoxicity test EZ4U (Biomedica No. BI-5000 10×96 determinations). After three hours of incubation with EZ4U, the evaluation was carried out photometrically in percent at a wavelength of 49/630 nm in a slidephotometer (extinction of the test sample divided by extinction of the control-sample blank value).
# BxPc-3 = assay: Cytostatic activity, EZ4U test, pancreas carcinoma cell line BxPc-3; format: cell-based; settings: three days
# Procedure: as §1, §2, §3
# Capan-1 = assay: Cytostatic activity, EZ4U test, pancreas carcinoma cell line Capan-1; format: cell-based; settings: three days
# Procedure: as §1, §2, §3
# Panc-1 = assay: Cytostatic activity, EZ4U test, pancreas carcinoma cell line Panc-1; format: cell-based; settings: three days
# Procedure: as §1, §2, §3
# HAT-29 = assay: Cytostatic activity, EZ4U cell proliferation and cytotoxicity test, colon carcinoma cell line HAT-29; format: cell-based; settings: three days
# Procedure: as §1, §2, §3
# HCT-8 = assay: Cytostatic activity, EZ4U test, colon carcinoma cell line HCT-8; format: cell-based; settings: three days
# Procedure: as §1, §2, §3
# DLD-1 = assay: Cytostatic activity, EZ4U test, colon carcinoma cell line DLD-1; format: cell-based; settings: three days
# Procedure: as §1, §2, §3
# HCT-15 = assay: Cytostatic activity, EZ4U test, colon carcinoma cell line HCT-15; format: cell-based; settings: three days
# Procedure: as §1, §2, §3
# Colon 320DM = assay: Cytostatic activity, EZ4U test, colon carcinoma cell line Colon 320DM; format: cell-based; settings: three days
# Procedure: as §1, §2, §3
# Colon 205 = assay: Cytostatic activity, EZ4U test, colon carcinoma cell line Colon 205; format: cell-based; settings: three days
# Procedure: as §1, §2, §3
# MIA PaCa-2 = assay: Cytostatic activity, EZ4U test, pancreas carcinoma cell line MIA PaCa-2; format: cell-based; settings: three days
# Procedure: as §1, §2, §3
# [1] = system: lymphocytes of healthy test persons; assay: Vitality of lymphocytes, trypan blue; format: cell-based, human; settings: for Vitality of lymphocytes in %: 24 hours
# Procedure: In addition, lymphocytes of healthy test persons were examined. In doing so, a total amount of 100 ml blood was drawn into EDTA test tubes. The lymphocytes were isolated from the full blood by means of a Mono-Poly Resolving Medium/Ficol-Hypaque gradient, were washed three times with an HBSS buffer and, prepared in this manner, they were added to the test stock.
# as §2
# The vitality of the lymphocytes was determined in a suspension of 1.2×10^7/ml at varying concentrations of the test substances. In the presence of the test substances, the cell suspensions were incubated for 24 hours at 37° C. and in an atmosphere of 5% CO2 and were then dyed with trypan blue. After dyeing, the lymphocytes were applied onto the counting chamber and their vitality was evaluated in percent.
# [2] = format: in vivo; settings: intravenous or intraperitoneal, up to 15 mg/kg body weight
# Procedure: After an (intravenous or intraperitoneal) systemic administration of poly-[2-(2-ethoxyethoxyethyl)guanidinium hydrochloride] in amounts of up to 15 mg/kg body weight, serum concentrations of up to 100 μg/ml are measured in the rat's blood after two hours, whereby, at the same time, the tolerance is good. Therefore, poly-[2-(2-ethoxyethoxyethyl)guanidinium hydrochloride] can be used as a cytostatic drug.
# cancer cells = assay: Cytostatic activity in cancer cell lines (colon and pancreas carcinoma), summary; format: cell-based; settings: colon carcinoma (HT-29, HCT-8, DLD-1) and pancreas carcinoma (ASPC-1, BXPC-3, CAPAN-1, PANC-1) cell lines
# Procedure: as §1
# as §3, with “After three hours of incubation with EZ4U, the evaluation was carried out photometrically in percent at a wavelength of 49/630 nm in a slidephotometer (extinction of the test sample divided by extinction of the control-sample blank value).” left out
compound,measurement,setting,value
O=c1[nH]cc(F)c(=O)[nH]1 [5-Fluorouracil],vitality in %,AsPc-1; 0.6 μg/ml,92%
same,vitality in %,AsPc-1; 6 μg/ml,88%
same,vitality in %,AsPc-1; 60 μg/ml,71%
same,vitality in %,BxPc-3; 0.6 μg/ml,86%
same,vitality in %,BxPc-3; 6 μg/ml,79%
same,vitality in %,BxPc-3; 60 μg/ml,67%
same,vitality in %,Capan-1; 0.6 μg/ml,46%
same,vitality in %,Capan-1; 6 μg/ml,38%
same,vitality in %,Capan-1; 60 μg/ml,23%
same,vitality in %,Panc-1; 0.6 μg/ml,80%
same,vitality in %,Panc-1; 6 μg/ml,77%
same,vitality in %,Panc-1; 60 μg/ml,62%
N.N.[Cl][Pt][Cl] [Cisplatin],vitality in %,AsPc-1; 0.025 μg/ml,85%
same,vitality in %,AsPc-1; 0.25 μg/ml,89%
same,vitality in %,AsPc-1; 2.5 μg/ml,53%
same,vitality in %,BxPc-3; 0.025 μg/ml,87%
same,vitality in %,BxPc-3; 0.25 μg/ml,65%
same,vitality in %,BxPc-3; 2.5 μg/ml,93%
same,vitality in %,Capan-1; 0.025 μg/ml,94%
same,vitality in %,Capan-1; 0.25 μg/ml,54%
same,vitality in %,Capan-1; 2.5 μg/ml,36%
COc1cccc2c1C(=O)c1c(O)c3c(c(O)c1C2=O)C[C@@](O)(C(=O)CO)C[C@@H]3O[C@H]1C[C@H](N)[C@@H](O)[C@H](C)O1 [Epirubicin],vitality in %,AsPc-1; 0.12 μg/ml,105%
same,vitality in %,AsPc-1; 1.19 μg/ml,59%
same,vitality in %,AsPc-1; 11.9 μg/ml,55%
same,vitality in %,BxPc-3; 0.12 μg/ml,76%
same,vitality in %,BxPc-3; 1.19 μg/ml,55%
same,vitality in %,BxPc-3; 11.9 μg/ml,62%
same,vitality in %,Capan-1; 0.12 μg/ml,50%
same,vitality in %,Capan-1; 1.19 μg/ml,35%
same,vitality in %,Capan-1; 11.9 μg/ml,54%
same,vitality in %,Panc-1; 0.12 μg/ml,111%
same,vitality in %,Panc-1; 1.19 μg/ml,43%
same,vitality in %,Panc-1; 11.9 μg/ml,61%
CO[C@@]12[C@H](COC(N)=O)C3=C(C(=O)C(C)=C(N)C3=O)N1C[C@@H]1N[C@@H]12 [Mitomycin C],vitality in %,AsPc-1; 0.015 μg/ml,98%
same,vitality in %,AsPc-1; 0.15 μg/ml,89%
same,vitality in %,AsPc-1; 1.5 μg/ml,65%
same,vitality in %,BxPc-3; 0.015 μg/ml,100%
same,vitality in %,BxPc-3; 0.15 μg/ml,91%
same,vitality in %,BxPc-3; 1.5 μg/ml,47%
same,vitality in %,Capan-1; 0.015 μg/ml,59%
same,vitality in %,Capan-1; 0.15 μg/ml,30%
same,vitality in %,Capan-1; 1.5 μg/ml,22%
same,vitality in %,Panc-1; 0.015 μg/ml,104%
same,vitality in %,Panc-1; 0.15 μg/ml,103%
same,vitality in %,Panc-1; 1.5 μg/ml,55%
poly-[2-(2-ethoxyethoxyethyl)guanidinium hydrochloride],vitality in %,HAT-29; 0.125 μg/ml,76%
same,vitality in %,HAT-29; 0.25 μg/ml,85%
same,vitality in %,HAT-29; 0.5 μg/ml,98%
same,vitality in %,HAT-29; 1 μg/ml,88%
same,vitality in %,HAT-29; 2 μg/ml,77%
same,vitality in %,HAT-29; 4 μg/ml,76%
same,vitality in %,HAT-29; 8 μg/ml,47%
same,vitality in %,HAT-29; 16 μg/ml,21%
same,vitality in %,HAT-29; 32 μg/ml,13%
same,vitality in %,HAT-29; 64 μg/ml,11%
same,vitality in %,HCT-8; 0.125 μg/ml,88%
same,vitality in %,HCT-8; 0.25 μg/ml,70%
same,vitality in %,HCT-8; 0.5 μg/ml,79%
same,vitality in %,HCT-8; 1 μg/ml,85%
same,vitality in %,HCT-8; 2 μg/ml,90%
same,vitality in %,HCT-8; 4 μg/ml,114%
same,vitality in %,HCT-8; 8 μg/ml,91%
same,vitality in %,HCT-8; 16 μg/ml,34%
same,vitality in %,HCT-8; 32 μg/ml,15%
same,vitality in %,HCT-8; 64 μg/ml,11%
same,vitality in %,DLD-1; 2 μg/ml,103%
same,vitality in %,DLD-1; 4 μg/ml,86%
same,vitality in %,DLD-1; 8 μg/ml,49%
same,vitality in %,DLD-1; 16 μg/ml,26%
same,vitality in %,DLD-1; 32 μg/ml,17%
same,vitality in %,DLD-1; 64 μg/ml,15%
same,vitality in %,HCT-15; 2 μg/ml,81%
same,vitality in %,HCT-15; 4 μg/ml,81%
same,vitality in %,HCT-15; 8 μg/ml,69%
same,vitality in %,HCT-15; 16 μg/ml,25%
same,vitality in %,HCT-15; 32 μg/ml,18%
same,vitality in %,HCT-15; 64 μg/ml,16%
same,vitality in %,Colon 320DM; 2 μg/ml,79%
same,vitality in %,Colon 320DM; 4 μg/ml,37%
same,vitality in %,Colon 320DM; 8 μg/ml,26%
same,vitality in %,Colon 320DM; 16 μg/ml,24%
same,vitality in %,Colon 320DM; 32 μg/ml,22%
same,vitality in %,Colon 320DM; 64 μg/ml,21%
same,vitality in %,Colon 205; 2 μg/ml,70%
same,vitality in %,Colon 205; 4 μg/ml,59%
same,vitality in %,Colon 205; 8 μg/ml,27%
same,vitality in %,Colon 205; 16 μg/ml,16%
same,vitality in %,Colon 205; 32 μg/ml,16%
same,vitality in %,Colon 205; 64 μg/ml,15%
same,vitality in %,AsPc-1; 2 μg/ml,92%
same,vitality in %,AsPc-1; 4 μg/ml,70%
same,vitality in %,AsPc-1; 8 μg/ml,50%
same,vitality in %,AsPc-1; 16 μg/ml,15%
same,vitality in %,AsPc-1; 32 μg/ml,12%
same,vitality in %,AsPc-1; 64 μg/ml,13%
same,vitality in %,BxPc-3; 2 μg/ml,63%
same,vitality in %,BxPc-3; 4 μg/ml,74%
same,vitality in %,BxPc-3; 8 μg/ml,44%
same,vitality in %,BxPc-3; 16 μg/ml,18%
same,vitality in %,BxPc-3; 32 μg/ml,11%
same,vitality in %,BxPc-3; 64 μg/ml,9%
same,vitality in %,Capan-1; 2 μg/ml,115%
same,vitality in %,Capan-1; 4 μg/ml,111%
same,vitality in %,Capan-1; 8 μg/ml,95%
same,vitality in %,Capan-1; 16 μg/ml,114%
same,vitality in %,Capan-1; 32 μg/ml,79%
same,vitality in %,Capan-1; 64 μg/ml,46%
same,vitality in %,Panc-1; 2 μg/ml,88%
same,vitality in %,Panc-1; 4 μg/ml,90%
same,vitality in %,Panc-1; 8 μg/ml,55%
same,vitality in %,Panc-1; 16 μg/ml,30%
same,vitality in %,Panc-1; 32 μg/ml,16%
same,vitality in %,Panc-1; 64 μg/ml,11%
same,vitality in %,MIA PaCa-2; 2 μg/ml,106%
same,vitality in %,MIA PaCa-2; 4 μg/ml,97%
same,vitality in %,MIA PaCa-2; 8 μg/ml,58%
same,vitality in %,MIA PaCa-2; 16 μg/ml,16%
same,vitality in %,MIA PaCa-2; 32 μg/ml,12%
same,vitality in %,MIA PaCa-2; 64 μg/ml,11%
same,Vitality of lymphocytes in %,[1]; 12.5 μg/ml,98%
same,Vitality of lymphocytes in %,[1]; 25 μg/ml,100%
same,Vitality of lymphocytes in %,[1]; 50 μg/ml,96%
same,Vitality of lymphocytes in %,[1]; 100 μg/ml,98%
same,Vitality of lymphocytes in %,[1]; 250 μg/ml,30%
same,Vitality of lymphocytes in %,[1]; 500 μg/ml,16%
same,Vitality of lymphocytes in %,[1]; 1000 μg/ml,1%
same,concentrations from which cytostatic activity has been observed,[1]; healthy endogenous cells such as lymphocytes (table 4),≥ 100 µg/mL
same,serum concentrations in the rat's blood,[2]; after two hours,up to 100 μg/ml
same,tolerance,[2]; rat,good
same,cytostatic activity,cancer cells,excellent cytostatic activity
